Measured values published in US6670329B2, “Selenocosmia huwena toxin and analgesic uses thereof” (priority 2000, dated 2003).
Values joined by “and” are separate entries in the source; they are usually repeats but may differ in a detail not shown here. Identical values can stand only once.

Key:
[1] = test system: mouse phrenic nerve-diaphragm preparation; assay: mouse phrenic nerve-diaphragm assay for inhibition of neuromuscular transmission
[2] = test system: low-voltage-activated Ca2+ channel; assay: Ca2+ channel inhibition assay, low-voltage-activated channel; assay type: cell-based
Description: (§1) Ca^2+ channel Inhibition Assay. […] Cells were cultured in 90% Dulbecco's modified Eagle's medium (DMEM) with 10% newborn calf serum, hypoxanthine aminopterin thymidine supplement and penicillin-streptomycin. Cells were transferred to plates for electrophysiological experiments and cultured with 1% calf serum and […] DMEM. Prostaglandin E1 (10 μM) and 3-isobutyl-1-methylxanthine (50 μM) were added to the medium. Macroscopic Ca^2+ channel currents (filtered at 10 kHz, digitized at […] with a EPC-9 patch clamp amplifier, HEKA Electronics, Germany) were recorded at room temperature using Ba^2+ as the charge carrier. Cells were held at −40 mV potential and then depolarized to 0 mV. […] Inhibition was dose dependent. The EC50 for inhibition was approximately 100 nM (EC50≈100 nM). HWAP-I is highly specific for this channel as the low-voltage-activated Ca^2+ channel was unaffected.

Sprague-Dawley rats = settings: rat, in vivo
Description: Adult Sprague-Dawley rats were anesthetized with 2% sodium pentobarbital (40 mg/kg, ip.). The neck skin was cut to expose the occipital membrane. HWAP-I, formulated in normal saline, was administered by a PE-10 polyethylene tube (14 cm) inserted into the epidural space (depth of insert: 7 cm) to the site of intumescence at the rats' waist. The insertion position of the tube was confirmed by anatomization after the experiment.
Pain tolerance assays were performed 1-4 days after the operation. A healthy rat was put into a fixed canister with its tail drooping from the bottom of the vessel. There were three spots on the tail labeled for irradiation. The intensity of light was adjusted so that the tail flick latency (TFL) of rat was within 2-4 seconds. The average of TFLs determined three times before drug treatment was deemed the baseline pain threshold of the rat. HWAP-I was administered to the rat using the inserted tube. After 20 minutes, the pain threshold was determined. The analgesic effect (AE) was calculated according the following formula: [formula]
wherein Tp is the TLF post-drug treatment, and TB is the baseline pain threshold.
The upper limit of the increased rate of pain threshold was 200% in order to avoid hurting the skin of rat-tail, e.g.., when the baseline pain threshold was 3 seconds. Irradiation was stopped as soon as the TFL exceeded 9 seconds.
54 rats (160-220 g), of either gender, whose TB basic pain thresholds were within 3-4 seconds, were chosen and divided randomly into six groups of nine rats. The rats in each group were treated with HWAP-I at a dose of 120 μg/kg, 180 μg/kg, 240 μg/kg, 300 μg/kg, 360 μg/kg respectively and with normal saline in control group.

rats = assay: rat tail flick pain threshold, subarachnoid space administration; assay type: in vivo; settings: for increase of pain threshold: in an hour
Description: The method was testing using the rat experimental system. After anesthesia, the neck skin of a rat was cut. The occcipital membrane was exposed and a hole with 1 mm diameter was made with #5 needle. […] The insertion position of the tube was later confirmed by anatomization after experiment.
Assays were performed in 1-3 days after the operation. 28 rats (130-230 g), of either gender, whose basic pain thresholds were within 2-4 seconds, were chosen and divided randomly into four groups of seven rats.

[3] = test system: high-voltage-activated Ca2+ channel expressed in prostaglandin E1 differentiated NG108-15 cells; assay: Ca2+ channel inhibition assay (patch clamp, Ba2+ as charge carrier); assay type: cell-based
Description: as §1

New Zealand rabbits = settings: rabbit, in vivo

Molecule | duration of block of neuromuscular transmission ([1]; 1·10^−5 g/ml) [min] | effect on indirect twitch response ([1]; electrical stimulation of phrenic nerve) | effect on low-voltage-activated Ca2+ channel [2] | adverse effects (Sprague-Dawley rats) | analgesic effect (Sprague-Dawley rats) | duration time of analgesic effect (Sprague-Dawley rats) | increase of pain threshold (Sprague-Dawley rats) | duration of analgesic effect compared with morphine hydrochloride (5 μg/kg) (rats; subarachnoid) | increase of pain threshold (rats; subarachnoid, 1.5 μg/kg) | duration of analgesic effect (rats; subarachnoid, 3.0 μg/kg) | increase of pain threshold (rats; subarachnoid, 3.0 μg/kg) [%] | adverse effects (rats; subarachnoid, 8 μg/kg, most restored to normal without sequela) | analgesic effect (rats; subarachnoid, 0.6, 1.5, 3.0 μg/kg) | inhibition of the Ca2+ current ([3]; 10 μM, held at −40 mV, depolarized to 0 mV) | EC50 ([3]; NG108-15 cells, room temperature, read-out: EC50 for inhibition of Ca2+ current) [nM] | analgesic effect in formalin pain model (New Zealand rabbits) | duration of the analgesic effect (New Zealand rabbits) [h] | toxic side effects (New Zealand rabbits) | analgesic effect decreased from maximum to, within a single hour (Sprague-Dawley rats) [%]
NH2-Ala-Cys-Lys-Gly-Val-Phe-Asp-Ala-Cys-Thr-Pro-Gly-Lys-Asn-Glu-Cys -Cys-Pro-Asn-Arg-Val-Cys-Ser-Asp-Lys-His-Lys-Trp-Cys-Lys-Trp-Lys-Leu-COOH (H-ACKGVFDACTPGKNECCPNRVCSDKHKWCKWKL-OH; cysteine pairing not given here) [HWAP-I] | 14.3 ± 3.2 | inhibition of the indirect twitch response | unaffected | ataxia in the quarters | had analgesic effects | over 3 hours | 50-70% and 100% | longer than that of morphine | 40-50% | over 3 hours | 100 | becoming ataxic in the quarters | had analgesic effects | potent inhibitor | ~100 | potent and robust analgesic effect | 5 to 6 | no obvious toxic side effects were observed | –
CN1CC[C@]23c4c5ccc(O)c4O[C@H]2[C@@H](O)C=C[C@H]3[C@H]1C5.Cl [morphine, morphine hydrochloride, reference compound] | – | – | – | – | – | – | – | – | – | – | – | – | – | – | – | – | – | – | 50
